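Following 48 hours of exposure in 96-well plates, responses at five concentrations were used to interpolate endpoints linearly. TGI: concentration producing complete growth inhibition.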
How the values were obtained:
Assay in all cases: inhibition of tumour cell growth, NCI panel, 48 h
786-0 renal = system: 786-0 renal
A498 renal = system: A498 renal
A549 NSCLC = system: A549 NSCLC
ACHN renal = system: ACHN renal
CAKI-1 renal = system: CAKI-1 renal
CCRF-CEM leukemia = system: CCRF-CEM leukemia
COLO 205 colon = system: COLO 205 colon
DLD-1 colon = system: DLD-1 colon
DMS 114 small cell lung = system: DMS 114 small cell lung
DMS 273 small cell lung = system: DMS 273 small cell lung
EKVX NSCLC = system: EKVX NSCLC
HCC-2998 colon = system: HCC-2998 colon
HCT-116 colon = system: HCT-116 colon
HCT-15 colon = system: HCT-15 colon
HL-60(TB) leukemia = system: HL-60(TB) leukemia
HOP-18 NSCLC = system: HOP-18 NSCLC
HOP-62 NSCLC = system: HOP-62 NSCLC
HOP-92 NSCLC = system: HOP-92 NSCLC
HT29 colon = system: HT29 colon
IGROV1 ovarian = system: IGROV1 ovarian
K-562 leukemia = system: K-562 leukemia
KM12 colon = system: KM12 colon
KM20L2 colon = system: KM20L2 colon
LOX IMVI melanoma = system: LOX IMVI melanoma
LXFL 529 NSCLC = system: LXFL 529 NSCLC
M14 melanoma = system: M14 melanoma
M19-MEL melanoma = system: M19-MEL melanoma
MALME-3M melanoma = system: MALME-3M melanoma
MOLT-4 leukemia = system: MOLT-4 leukemia
NCI-H23 lung = system: NCI-H23 lung
NCI-H460 lung = system: NCI-H460 lung
OVCAR-3 ovarian = system: OVCAR-3 ovarian
OVCAR-4 ovarian = system: OVCAR-4 ovarian
OVCAR-5 ovarian = system: OVCAR-5 ovarian
OVCAR-8 ovarian = system: OVCAR-8 ovarian
RPMI-8226 leukemia = system: RPMI-8226 leukemia
RXF 393 renal = system: RXF 393 renal
SF-268 CNS = system: SF-268 CNS
SF-295 CNS = system: SF-295 CNS
SF-539 CNS = system: SF-539 CNS
SK-MEL-2 melanoma = system: SK-MEL-2 melanoma
SK-MEL-5 melanoma = system: SK-MEL-5 melanoma
SK-OV-3 ovarian = system: SK-OV-3 ovarian
SN12C renal = system: SN12C renal
SNB-19 CNS = system: SNB-19 CNS
SNB-75 CNS = system: SNB-75 CNS
SNB-78 CNS = system: SNB-78 CNS
SW-620 colon = system: SW-620 colon
TK-10 renal = system: TK-10 renal
U251 CNS = system: U251 CNS
UACC-257 melanoma = system: UACC-257 melanoma
UACC-62 melanoma = system: UACC-62 melanoma
UO-31 renal = system: UO-31 renal
XF 498 CNS = system: XF 498 CNS
NCI-H226 lung = system: NCI-H226 lung
NCI-H522 lung = system: NCI-H522 lung
SK-MEL-28 melanoma = system: SK-MEL-28 melanoma
SR leukemia = system: SR leukemia

`COC(=O)CC(=O)OC` was tested, and the TGI (786-0 renal) was over 100 µM, the TGI (A498 renal) was over 100 µM and the TGI (A549 NSCLC) was over 100 µM. For the same compound, the TGI (ACHN renal) was over 100 µM, the TGI (CAKI-1 renal) was over 100 µM and the TGI (CCRF-CEM leukemia) was over 100 µM. It also gave a TGI (COLO 205 colon) of over 100 µM, a TGI (DLD-1 colon) of over 100 µM and a TGI (DMS 114 small cell lung) of over 100 µM. It also gave a TGI (DMS 273 small cell lung) of over 100 µM, a TGI (EKVX NSCLC) of over 100 µM and a TGI (HCC-2998 colon) of over 100 µM. The TGI (HCT-116 colon) was over 100 µM, the TGI (HCT-15 colon) was over 100 µM and the TGI (HL-60(TB) leukemia) was over 100 µM. It also gave a TGI (HOP-18 NSCLC) of over 100 µM, a TGI (HOP-62 NSCLC) of over 100 µM and a TGI (HOP-92 NSCLC) of over 100 µM. For the same compound, the TGI (HT29 colon) was over 100 µM, the TGI (IGROV1 ovarian) was over 100 µM and the TGI (K-562 leukemia) was over 100 µM. It also gave a TGI (KM12 colon) of over 100 µM, a TGI (KM20L2 colon) of over 100 µM and a TGI (LOX IMVI melanoma) of over 100 µM. It also gave a TGI (LXFL 529 NSCLC) of over 100 µM, a TGI (M14 melanoma) of over 100 µM and a TGI (M19-MEL melanoma) of over 100 µM. It also gave a TGI (MALME-3M melanoma) of over 100 µM, a TGI (MOLT-4 leukemia) of over 100 µM and a TGI (NCI-H23 lung) of over 100 µM. The TGI (NCI-H460 lung) was over 100 µM, the TGI (OVCAR-3 ovarian) was over 100 µM and the TGI (OVCAR-4 ovarian) was over 100 µM. For the same compound, the TGI (OVCAR-5 ovarian) was over 100 µM, the TGI (OVCAR-8 ovarian) was over 100 µM and the TGI (RPMI-8226 leukemia) was over 100 µM. It also gave a TGI (RXF 393 renal) of over 100 µM, a TGI (SF-268 CNS) of over 100 µM and a TGI (SF-295 CNS) of over 100 µM. It also gave a TGI (SF-539 CNS) of over 100 µM, a TGI (SK-MEL-2 melanoma) of over 100 µM and a TGI (SK-MEL-5 melanoma) of over 100 µM. The TGI (SK-OV-3 ovarian) was over 100 µM, the TGI (SN12C renal) was over 100 µM and the TGI (SNB-19 CNS) was over 100 µM. It also gave a TGI (SNB-75 CNS) of over 100 µM, a TGI (SNB-78 CNS) of over 100 µM and a TGI (SW-620 colon) of over 100 µM. The TGI (TK-10 renal) was over 100 µM, the TGI (U251 CNS) was over 100 µM and the TGI (UACC-257 melanoma) was over 100 µM. For the same compound, the TGI (UACC-62 melanoma) was over 100 µM, the TGI (UO-31 renal) was over 100 µM and the TGI (XF 498 CNS) was over 100 µM.

For `O=C1OC(CC(=O)c2ccc(Cl)cc2)C(Cl)=C1Cl` (centres undefined), the TGI (786-0 renal) was over 100 µM, the TGI (A498 renal) was over 100 µM and the TGI (A549 NSCLC) was over 100 µM. The TGI (ACHN renal) was over 100 µM, the TGI (CAKI-1 renal) was over 100 µM and the TGI (CCRF-CEM leukemia) was over 100 µM. The TGI (COLO 205 colon) was over 100 µM, the TGI (DLD-1 colon) was over 100 µM and the TGI (DMS 114 small cell lung) was over 100 µM. For the same compound, the TGI (DMS 273 small cell lung) was over 100 µM, the TGI (EKVX NSCLC) was over 100 µM and the TGI (HCC-2998 colon) was over 100 µM. For the same compound, the TGI (HCT-116 colon) was over 100 µM, the TGI (HCT-15 colon) was over 100 µM and the TGI (HL-60(TB) leukemia) was 76.9 µM. It also gave a TGI (HOP-18 NSCLC) of over 100 µM, a TGI (HOP-62 NSCLC) of over 100 µM and a TGI (HOP-92 NSCLC) of over 100 µM. It also gave a TGI (HT29 colon) of over 100 µM, a TGI (IGROV1 ovarian) of over 100 µM and a TGI (K-562 leukemia) of over 100 µM. The TGI (KM12 colon) was over 100 µM, the TGI (KM20L2 colon) was over 100 µM and the TGI (LXFL 529 NSCLC) was over 100 µM. For the same compound, the TGI (M14 melanoma) was over 100 µM, the TGI (M19-MEL melanoma) was over 100 µM and the TGI (MALME-3M melanoma) was over 100 µM. It also gave a TGI (MOLT-4 leukemia) of over 100 µM, a TGI (NCI-H226 lung) of over 100 µM and a TGI (NCI-H23 lung) of over 100 µM. For the same compound, the TGI (NCI-H460 lung) was over 100 µM, the TGI (NCI-H522 lung) was over 100 µM and the TGI (OVCAR-3 ovarian) was over 100 µM. For the same compound, the TGI (OVCAR-4 ovarian) was over 100 µM, the TGI (OVCAR-5 ovarian) was over 100 µM and the TGI (OVCAR-8 ovarian) was over 100 µM. For the same compound, the TGI (RPMI-8226 leukemia) was over 100 µM, the TGI (SF-268 CNS) was over 100 µM and the TGI (SF-295 CNS) was over 100 µM. For the same compound, the TGI (SF-539 CNS) was over 100 µM, the TGI (SK-MEL-2 melanoma) was over 100 µM and the TGI (SK-MEL-28 melanoma) was over 100 µM. For the same compound, the TGI (SK-MEL-5 melanoma) was over 100 µM, the TGI (SK-OV-3 ovarian) was over 100 µM and the TGI (SN12C renal) was over 100 µM. For the same compound, the TGI (SNB-19 CNS) was over 100 µM, the TGI (SNB-75 CNS) was over 100 µM and the TGI (SR leukemia) was over 100 µM. It also gave a TGI (SW-620 colon) of over 100 µM, a TGI (TK-10 renal) of over 100 µM and a TGI (U251 CNS) of over 100 µM. For the same compound, the TGI (UACC-257 melanoma) was over 100 µM, the TGI (UACC-62 melanoma) was over 100 µM and the TGI (UO-31 renal) was over 100 µM. The TGI (XF 498 CNS) was over 100 µM.

From PubChem BioAssay (NCI)
